In PubChem BioAssay (NCI):
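Cells were grown in 96-well plates and exposed to each compound for 48 hours at five concentrations; endpoints were interpolated linearly between bracketing concentrations, or set to the highest concentration if not reached. Definition used: TGI = concentration required for complete inhibition of growth.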

Legend:
Test in all cases: NCI-60 cell line screen, 48 h
IGROV1 ovarian = tested on: IGROV1 ovarian
NCI-H460 lung = tested on: NCI-H460 lung
T-47D breast = tested on: T-47D breast
SK-MEL-2 melanoma = tested on: SK-MEL-2 melanoma
HCC-2998 colon = tested on: HCC-2998 colon
ACHN renal = tested on: ACHN renal
PC-3 prostate = tested on: PC-3 prostate
NCI-H226 lung = tested on: NCI-H226 lung
CAKI-1 renal = tested on: CAKI-1 renal
HOP-92 NSCLC = tested on: HOP-92 NSCLC
SNB-75 CNS = tested on: SNB-75 CNS
786-0 renal = tested on: 786-0 renal
MCF7 breast = tested on: MCF7 breast
KM12 colon = tested on: KM12 colon
SR leukemia = tested on: SR leukemia
M14 melanoma = tested on: M14 melanoma
RPMI-8226 leukemia = tested on: RPMI-8226 leukemia
NCI-H23 lung = tested on: NCI-H23 lung
LOX IMVI melanoma = tested on: LOX IMVI melanoma
RXF 393 renal = tested on: RXF 393 renal
U251 CNS = tested on: U251 CNS
UO-31 renal = tested on: UO-31 renal
BT-549 breast = tested on: BT-549 breast
SK-MEL-28 melanoma = tested on: SK-MEL-28 melanoma
SF-539 CNS = tested on: SF-539 CNS
OVCAR-5 ovarian = tested on: OVCAR-5 ovarian
MDA-MB-231 breast = tested on: MDA-MB-231 breast
COLO 205 colon = tested on: COLO 205 colon
NCI-H522 lung = tested on: NCI-H522 lung
UACC-62 melanoma = tested on: UACC-62 melanoma
SN12C renal = tested on: SN12C renal
TK-10 renal = tested on: TK-10 renal
SF-268 CNS = tested on: SF-268 CNS
K-562 leukemia = tested on: K-562 leukemia
UACC-257 melanoma = tested on: UACC-257 melanoma
SNB-19 CNS = tested on: SNB-19 CNS
A549 NSCLC = tested on: A549 NSCLC
MDA-N = tested on: MDA-N
OVCAR-8 ovarian = tested on: OVCAR-8 ovarian
DU-145 prostate = tested on: DU-145 prostate
HCT-116 colon = tested on: HCT-116 colon
NCI/ADR-RES ovarian = tested on: NCI/ADR-RES ovarian
MOLT-4 leukemia = tested on: MOLT-4 leukemia
SW-620 colon = tested on: SW-620 colon
MALME-3M melanoma = tested on: MALME-3M melanoma
MDA-MB-435 = tested on: MDA-MB-435
OVCAR-4 ovarian = tested on: OVCAR-4 ovarian
EKVX NSCLC = tested on: EKVX NSCLC
SK-MEL-5 melanoma = tested on: SK-MEL-5 melanoma
HL-60(TB) leukemia = tested on: HL-60(TB) leukemia
CCRF-CEM leukemia = tested on: CCRF-CEM leukemia
SK-OV-3 ovarian = tested on: SK-OV-3 ovarian
A498 renal = tested on: A498 renal
SF-295 CNS = tested on: SF-295 CNS
OVCAR-3 ovarian = tested on: OVCAR-3 ovarian
HCT-15 colon = tested on: HCT-15 colon
HS 578T breast = tested on: HS 578T breast
HT29 colon = tested on: HT29 colon
HOP-62 NSCLC = tested on: HOP-62 NSCLC
DLD-1 colon = tested on: DLD-1 colon
KM20L2 colon = tested on: KM20L2 colon
M19-MEL melanoma = tested on: M19-MEL melanoma
DMS 114 small cell lung = tested on: DMS 114 small cell lung
LXFL 529 NSCLC = tested on: LXFL 529 NSCLC
HOP-18 NSCLC = tested on: HOP-18 NSCLC
SNB-78 CNS = tested on: SNB-78 CNS
DMS 273 small cell lung = tested on: DMS 273 small cell lung

## COc1ccc(/C=C/C(=O)c2ccc(OC(=O)/C=C/c3ccccc3)cc2)cc1
IGROV1 ovarian
  TGI: > 77.7 µM
NCI-H460 lung
  TGI: 97.8 µM
T-47D breast
  TGI: 62.8 µM
SK-MEL-2 melanoma
  TGI: > 100 µM
HCC-2998 colon
  TGI: 32.8 µM
ACHN renal
  TGI: > 100 µM
PC-3 prostate
  TGI: > 100 µM
NCI-H226 lung
  TGI: > 100 µM
CAKI-1 renal
  TGI: > 69.2 µM
HOP-92 NSCLC
  TGI: > 100 µM
SNB-75 CNS
  TGI: > 82.2 µM
786-0 renal
  TGI: 52.8 µM
MCF7 breast
  TGI: > 100 µM
KM12 colon
  TGI: 26.4 µM
SR leukemia
  TGI: 16.9 µM
M14 melanoma
  TGI: > 100 µM
RPMI-8226 leukemia
  TGI: 24.7 µM
NCI-H23 lung
  TGI: 73.8 µM
LOX IMVI melanoma
  TGI: > 100 µM
RXF 393 renal
  TGI: > 100 µM
U251 CNS
  TGI: > 100 µM
UO-31 renal
  TGI: > 91.5 µM
BT-549 breast
  TGI: > 58.3 µM
SK-MEL-28 melanoma
  TGI: > 100 µM
SF-539 CNS
  TGI: > 53.5 µM
OVCAR-5 ovarian
  TGI: > 100 µM
MDA-MB-231 breast
  TGI: > 87.2 µM
COLO 205 colon
  TGI: > 71.6 µM
NCI-H522 lung
  TGI: 54.7 µM
UACC-62 melanoma
  TGI: > 63.7 µM
SN12C renal
  TGI: > 69.7 µM
TK-10 renal
  TGI: > 100 µM
SF-268 CNS
  TGI: > 68.1 µM
K-562 leukemia
  TGI: > 100 µM
UACC-257 melanoma
  TGI: > 100 µM
SNB-19 CNS
  TGI: > 63.4 µM
A549 NSCLC
  TGI: > 100 µM
MDA-N
  TGI: > 100 µM
OVCAR-8 ovarian
  TGI: > 83.2 µM
DU-145 prostate
  TGI: > 74.2 µM
HCT-116 colon
  TGI: 40.4 µM
NCI/ADR-RES ovarian
  TGI: > 100 µM
MOLT-4 leukemia
  TGI: 50.6 µM
SW-620 colon
  TGI: 98.9 µM
MALME-3M melanoma
  TGI: > 100 µM
MDA-MB-435
  TGI: > 100 µM
OVCAR-4 ovarian
  TGI: 92.8 µM
EKVX NSCLC
  TGI: > 92.2 µM
SK-MEL-5 melanoma
  TGI: > 70 µM
HL-60(TB) leukemia
  TGI: 33.7 µM
CCRF-CEM leukemia
  TGI: 21.5 µM
SK-OV-3 ovarian
  TGI: > 100 µM
A498 renal
  TGI: > 73.4 µM
SF-295 CNS
  TGI: > 64 µM
OVCAR-3 ovarian
  TGI: > 100 µM
HCT-15 colon
  TGI: > 100 µM
HS 578T breast
  TGI: > 100 µM
HT29 colon
  TGI: 39.6 µM
HOP-62 NSCLC
  TGI: > 100 µM

## CCc1cccc(C)c1NC(=S)NC(=O)c1ccccc1C(=O)NC(=S)Nc1c(C)cccc1CC
IGROV1 ovarian
  TGI: > 100 µM
NCI-H460 lung
  TGI: > 100 µM
SK-MEL-2 melanoma
  TGI: > 100 µM
HCC-2998 colon
  TGI: > 100 µM
DLD-1 colon
  TGI: > 100 µM
ACHN renal
  TGI: > 100 µM
NCI-H226 lung
  TGI: > 100 µM
CAKI-1 renal
  TGI: > 100 µM
HOP-92 NSCLC
  TGI: 65.4 µM
KM20L2 colon
  TGI: > 100 µM
M19-MEL melanoma
  TGI: > 100 µM
SNB-75 CNS
  TGI: > 100 µM
786-0 renal
  TGI: > 100 µM
KM12 colon
  TGI: > 100 µM
SR leukemia
  TGI: > 100 µM
M14 melanoma
  TGI: > 100 µM
RPMI-8226 leukemia
  TGI: > 100 µM
NCI-H23 lung
  TGI: > 100 µM
LOX IMVI melanoma
  TGI: > 100 µM
RXF 393 renal
  TGI: > 100 µM
U251 CNS
  TGI: > 100 µM
UO-31 renal
  TGI: > 100 µM
SK-MEL-28 melanoma
  TGI: > 100 µM
SF-539 CNS
  TGI: > 100 µM
DMS 114 small cell lung
  TGI: 70.8 µM
OVCAR-5 ovarian
  TGI: > 100 µM
COLO 205 colon
  TGI: > 100 µM
NCI-H522 lung
  TGI: 35.2 µM
UACC-62 melanoma
  TGI: > 100 µM
SN12C renal
  TGI: > 100 µM
TK-10 renal
  TGI: > 100 µM
SF-268 CNS
  TGI: > 100 µM
K-562 leukemia
  TGI: > 100 µM
UACC-257 melanoma
  TGI: > 100 µM
SNB-19 CNS
  TGI: > 100 µM
A549 NSCLC
  TGI: > 100 µM
OVCAR-8 ovarian
  TGI: > 100 µM
LXFL 529 NSCLC
  TGI: > 100 µM
HCT-116 colon
  TGI: > 100 µM
MOLT-4 leukemia
  TGI: > 100 µM
SW-620 colon
  TGI: > 100 µM
MALME-3M melanoma
  TGI: > 100 µM
OVCAR-4 ovarian
  TGI: > 100 µM
EKVX NSCLC
  TGI: > 100 µM
SK-MEL-5 melanoma
  TGI: > 100 µM
HL-60(TB) leukemia
  TGI: > 100 µM
CCRF-CEM leukemia
  TGI: > 100 µM
SK-OV-3 ovarian
  TGI: > 100 µM
A498 renal
  TGI: > 100 µM
SF-295 CNS
  TGI: > 100 µM
OVCAR-3 ovarian
  TGI: 80.9 µM
HCT-15 colon
  TGI: > 100 µM
HT29 colon
  TGI: > 100 µM
HOP-18 NSCLC
  TGI: > 100 µM
HOP-62 NSCLC
  TGI: > 100 µM
SNB-78 CNS
  TGI: > 100 µM
DMS 273 small cell lung
  TGI: > 100 µM
